The conditions of data set [1]: rat, cited from earlier work.
Data set [2] is described as follows: in vivo. The note with it: rat, half-life of photosensitizer concentration in the heart. As for the experimental part: FIG. 46 is a graph showing changes in the photosensitizer concentration in the rat heart at doses of 5 and 2 mg/kg together with changes in plasma concentration in rats and humans.
Data set [3] relates to isolated right ventricular free wall of a Wistar rat. The experiment in a line: PDT electrical conduction block experiment in ex vivo system. As for the experimental part: As materials, spread samples of an isolated right ventricular free wall of a Wistar rat (male, 8 to 10 weeks old) were used. The length (L) and the thickness (d) of sample photoradiation lines in each experiment are as follows.
Experiment 1: L=0.9 cm, d=1.5 mm
Experiment 2: L=0.76 cm, d=1.5 mm
Experiment 3: L=1.2 cm, d=1.4 mm
Experiment 4: L=0.88 cm, d=1.4 mm
Tyrode's solution (95% O2 and 5% CO2 gases were passed through, and the temperature was maintained at 37° C. in a constant-temperature apparatus) was used as a perfusion fluid.
Immediately after isolation, the heart was dipped in the perfusion fluid heated at about 37° C., and a right ventricular tissue was ablated. The ablated tissue was fixed on the silicon floor of a tissue bath with a 0.2 mmφ tungsten wire, and then the perfusion fluid was allowed to flow.
Immediately after rats were allowed to inhale vaporized diethyl ether, heparin and Nembutal (0.2 and 0.5 ml, respectively) were administered intraperitoneally, and approx. 0.5 ml of talaporfin sodium (Laserphyrin [registered trade name] Meiji Seika Kaisha, Ltd.) dissolved in physiological saline was intravenously injected from the vena cava of the rat lower extremity. After the heart was isolated, a right ventricular tissue was ablated in a normal Tyrode's solution and fixed in a tissue bath. Then, Tyrode's solutions in which talaporfin sodium was dissolved at various concentrations (see Reference Example 1 described later, set assuming a half of the plasma concentration at each dose and interval as blood concentration) (these are referred to as photosensitizer solutions), and loaded by circulatory perfusion for a period equal to time required from the heart isolation to bath fixation (approx. 10 min), and laser irradiation was performed with surface perfusion. The photosensitizer dose (D), the interval to heart isolation, and the concentration of the photosensitizer solution (c) in each experimental example were as follows.
Experiment 1: D=5 mg/kg; interval, 30 min; c=30 μg/ml
Experiment 2: D=5 mg/kg; interval, 60 min; c=20 μg/ml
Experiment 3: D=2 mg/kg; interval, 30 min; c=12 μg/ml
Experiment 4: D=2 mg/kg; interval, 60 min; c=8 μg/ml
A continuous semiconductor laser beam (SONY, peak wavelength, 670 band) was transmitted with a quartz fiber (core diameter, 800 μm), and the fiber was used virtually in contact with the tissue surface with an output at the end thereof being 5 mW. Laser irradiation was performed while reciprocating the fiber horizontally across the tissue over approx. 1 cm on the tissue surface. The laser irradiation time (T) and the total dose of laser irradiation (It) in each experimental example were as follows.
Experiment 1: T=60 s, It=4.2 J/cm^2
Experiment 2: T=80 s, It=6.6 J/cm^2
Experiment 3: T=267 s, It=14 J/cm^2
Experiment 4: T=500 s, It=36 J/cm^2
0.8-mA electrical stimulus was applied from a bipolar electrode (Unique Medical Co., Ltd., obtained by twining 0.2-mmφ silver chloride wires) with a stimulator and an isolator (Nihon Kohden Corporation) every 300 ms, and two bipolar electrodes for measuring a potential (Unique Medical Co., Ltd., 0.25 mmφ stainless) were placed on the tissue surface to measure a extracellular potential (FIG. 24). […] A signal was led to a bioamplifier (Physio-Tech Co., Ltd., DAM50) and recorded and analyzed using a biosignal recording/analyzing apparatus (AD Instrumens) (FIG. 25). FIG. 25 is a schematic view showing an ex vivo experimental system.
FIGS. 26 to 29 show extracellular potentials before and after PDT a led potential in each experiment. In FIGS. 26 to 29, the upper line (red line) and the lower line (blue line) in one graph represent potentials in X and Y in FIG. 24, respectively. The vertical axis represents voltage.

The conditions of data set [4]: human; intravenous injection 1 mg/kg; cited from earlier work.
Setting [5] is: Experiment 1: 5 mg/kg i.v., interval 30 min, 30 μg/ml, 4.2 J/cm^2.
The mark [6] stands for this setting: Experiment 2: 5 mg/kg i.v., interval 60 min, 20 μg/ml, 6.6 J/cm^2.
[7] abbreviates: Experiment 3: 2 mg/kg i.v., interval 30 min, 12 μg/ml, 14 J/cm^2.
[8] abbreviates: Experiment 4: 2 mg/kg i.v., interval 60 min, 8 μg/ml, 36 J/cm^2.

Molecules are shown by their SMILES.

The half-life is the time in which the quantity being followed falls by half. Regarding `C=Cc1c(C)c2cc3nc(c(CC(=O)N[C@@H](CC(=O)O)C(=O)O)c4[nH]c(cc5nc(cc1[nH]2)C(C)=C5CC)c(C)c4C(=O)O)[C@@H](CCC(=O)O)[C@@H]3C` [talaporfin sodium, mono-L-aspartyl chlorine 6], in data set [1] (after intravenous injection), the “average of the half-lives in plasma from 2 to 24 h” value is reported as 9.6 h. Also, the “average of the half-lives in plasma from 2 to 60 min” value in data set [1] (intravenous injection 10 mg/kg) is 47 min. The half-life in data set [2] (0 to 60 min) is 1.08 h; in data set [2] (later phase) it was 13.3 h. In addition, the “electrical conduction block after PDT” value in data set [3] (setting [5]), in data set [3] (setting [6]), in data set [3] (setting [7]) and in data set [3] (setting [8]) was “an electrical conduction block occurred after PDT” throughout. Also, the “time the conduction block state was maintained” value amounted to 3 h in data set [3] (setting [5]), 2 h in data set [3] (setting [6]), 3 h in data set [3] (setting [7]) and 3 h in data set [3] (setting [8]). Moreover, the “early average half-life in plasma” value in data set [4] was 14.6 h. Moreover, in data set [4], the “plasma concentration at 10 min” value was 27000 ng/mL.

The values above are taken from patent US9724537B2, “Abnormal electrical conduction blocking apparatus using photodynamic therapy (PDT)” (Keio University, priority 2006, dated 2017).
